Paper PMC7083880 (Nature Communications, 2020)
Read-outs that look alike come from different tables or passages of the source.

Experiments:
[1] = test system: Calu-6 cell tumors (TP53 UGA nonsense mutation) in nude mice; assay type: in vivo; design: tumor size, Average: unit not given here
Protocol: (§1) For each experimental condition, 7 mice were used. b Fourteen nude mice were injected with Calu-6 cells to promote tumor development. […] The arrow indicates the starting time of the exposure to DMSO or DAP. For each experimental condition, 7 mice were used. […] GAPDH was used as loading control. A molecular weight marker is indicated to the left of the gel. The results presented in this figure are representative of two independent experiments. p-values (p) were calculated using Student’s t-test. Source data are provided as a Source Data file.
(§2) Next, the capacity of DAP to correct UGA nonsense mutations in vivo was assessed in a mouse model. Four-week-old immunodeficient nude mice were injected with an identical number of Calu-6 cells carrying a UGA nonsense mutation in the TP53 gene, of HCC-GR6 cells having a wild-type TP53 gene or of p53-null 4T1 cells. […] The slower growth of Calu-6-cell-derived tumors in DAP-treated mice is thus likely due to rescue of p53 protein synthesis in these tumors, as expected on the basis of our cell culture experiments and as observed after western-blotting applied to protein extracts of tumors from DAP-treated mice (Supplementary Fig. 8B). Because of the small size of the Calu-6 tumors in DAP-treated mice and thus the high probability of collecting mouse cells upon tumor excision, quantitation of p53 was done in another experiment.
(§3) To initiate tumor growth, 6-week-old nude mice received subcutaneously 10 million cells suspended in PBS. […] Tumors were measured three times weekly for 5 weeks to determine the tumor volume by the following formula: l (mm) × L (mm) × L (mm). The tumors were then collected and a fraction was used for western blot analysis after protein extraction. All in vivo experiments complied with all relevant ethical regulations for animal testing and research and were authorized by the Ethic Committee 075 under the number 12971-2018010815336092.

[2] = test system: Calu-6 cell tumors in nude mice; experiment: In vivo established Calu-6 tumors: tumor size and p53 western blot; design: species or system mouse
Protocol: as §1, §2, §3

[3] = test system: Fluc-int-UGA construct in HEK293FT cells; experiment: Amino-acid identification assay (mass spectrometry); assay type: cell-based, human; settings: 25 µM DAP
From the text: To elucidate the molecular mechanism of DAP-promoted UGA readthrough, mass spectrometry was used to identify the amino acid incorporated at the PTC position into firefly luciferase synthesized from the Fluc-int-UGA construct. […] The luciferase protein was digested with […] to generate a PTC-position-containing peptide compatible with mass spectrometry analysis. Using this approach, we found only one amino acid, tryptophan, incorporated at the PTC position in the peptide of interest (Fig. 5a).
Firefly luciferase from HEK293FT cells transfected with the Fluc-int-UGA construct was immunoprecipitated and digested with trypsin. The MS/MS spectrum of the peptide containing the PTC position and the sequence determination are shown. […] Readthrough efficiency was determined by measuring luciferase activity in HeLa cells co-transfected with the firefly luciferase construct described in Fig. 1b and with increasing amounts of an expression vector for either FTSJ1 or CTU1 (0.5, 1, or 2 µg). […] A molecular weight marker is indicated to the left of each gel. p-values (p) were calculated using Student’s t-test. […]
Sixty million HEK293FT cells were transfected with 120 µg Fluc-int-UGA construct with CaCl2 in HBSS buffer. […] The immunoprecipitate was subjected to 10% SDS–PAGE and then firefly luciferase was detected by Coomassie staining. […]

## Nc1nc(N)c2[nH]cnc2n1 [DAP, 2,6-diaminopurine]
[1]; Calu-6, day 4, average of 7 mice
  tumor size, Average: 0.07457
[1]; Calu-6, day 6, average of 7 mice
  tumor size, Average: 0.06657
[1]; Calu-6, day 9, average of 7 mice
  tumor size, Average: 0.067
[1]; Calu-6, day 11, average of 7 mice
  tumor size, Average: 0.05029
[1]; Calu-6, day 13, average of 7 mice
  tumor size, Average: 0.039
[1]; Calu-6, day 16, average of 7 mice
  tumor size, Average: 0.037
[1]; Calu-6, day 18, average of 7 mice
  tumor size, Average: 0.03471
[1]; Calu-6, day 20, average of 7 mice
  tumor size, Average: 0.06171
[1]; Calu-6, day 23, average of 7 mice
  tumor size, Average: 0.07814
[1]; Calu-6, day 25, average of 7 mice
  tumor size, Average: 0.06286
[1]; Calu-6, day 27, average of 7 mice
  tumor size, Average: 0.07829
[1]; Calu-6, day 30, average of 7 mice
  tumor size, Average: 0.09486
[1]; Calu-6, day 32, average of 7 mice
  tumor size, Average: 0.1364
[1]; Calu-6, day 34, average of 7 mice
  tumor size, Average: 0.1461
[1]; Calu-6, day 37, average of 7 mice
  tumor size, Average: 0.1584
[1]; Calu-6, day 39, average of 7 mice
  tumor size, Average: 0.2454
[1]; Calu-6, day 41, average of 7 mice
  tumor size, Average: 0.2229
[1]; Calu-6, nude mice, force-fed daily, 5 weeks
  Tumor growth vs DMSO, in words: strongly impaired tumor growth
[1]; mouse, in vivo, po
  Toxicity in a mouse model: no detectable toxicity
[2]; measure 1 of 10 (time not given), DAP started when tumors about 0.4 cm^3
  Tumor size, average of 7 mice: 0.002 cm^3
[2]; measure 2 of 10 (time not given)
  Tumor size, average of 7 mice: 0.02357 cm^3
[2]; measure 3 of 10 (time not given)
  Tumor size, average of 7 mice: 0.05086 cm^3
[2]; measure 4 of 10 (time not given)
  Tumor size, average of 7 mice: 0.07071 cm^3
[2]; measure 5 of 10 (time not given)
  Tumor size, average of 7 mice: 0.1153 cm^3
[2]; measure 6 of 10 (time not given)
  Tumor size, average of 7 mice: 0.1741 cm^3
[2]; measure 7 of 10 (time not given)
  Tumor size, average of 7 mice: 0.2344 cm^3
[2]; measure 8 of 10 (time not given)
  Tumor size, average of 7 mice: 0.3563 cm^3
[2]; measure 9 of 10 (time not given)
  Tumor size, average of 7 mice: 0.4617 cm^3
[2]; measure 10 of 10 (time not given)
  Tumor size, average of 7 mice: 0.5429 cm^3
[3]
  Amino acid incorporated at the PTC position: tryptophan
